Each structure is given as a SMILES string.

What is called IC50 is the concentration that gives 50% inhibition. High values mean a need for much substance, low ones inhibition by little substance. What is called Ki is the equilibrium dissociation constant of an inhibitor or competing ligand from its target. Read a high Ki as weaker binding.

In the first assay the target is T1, Neuropeptide Y receptor type 1 (Homo sapiens, UniProt P25929).
T1 sequence (P25929 whole entry): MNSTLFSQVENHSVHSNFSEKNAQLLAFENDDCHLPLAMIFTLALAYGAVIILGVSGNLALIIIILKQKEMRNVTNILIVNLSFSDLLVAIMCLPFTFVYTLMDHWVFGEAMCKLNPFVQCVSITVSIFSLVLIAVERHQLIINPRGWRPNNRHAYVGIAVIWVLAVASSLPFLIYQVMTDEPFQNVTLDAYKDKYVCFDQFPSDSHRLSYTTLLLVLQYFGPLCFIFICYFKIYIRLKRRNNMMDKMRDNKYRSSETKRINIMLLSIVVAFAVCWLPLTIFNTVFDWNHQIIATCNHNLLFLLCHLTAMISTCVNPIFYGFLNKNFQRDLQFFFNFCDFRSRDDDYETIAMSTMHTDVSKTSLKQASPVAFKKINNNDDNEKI
In words: Inhibition of binding of [125I]PYY to membranes of SK-N-MC cells expressing the human Y1 receptors. It is filed as cell membranes.
Molecule `COC(=O)C1=C(C)N=C(C)/C(=C(/O)OC)C1c1cccc(NC(=O)NCCNC2CCN(c3ccccc3C#N)CC2)c1` (stereo unspecified) came in with an IC50 of 3 nM.

`COC(=O)C1=C(C)N=C(C)/C(=C(/O)OC)C1c1cccc(NC(=O)NCCNC2CCN(c3cccc(Cl)c3)CC2)c1` (stereo unspecified) registered an IC50 of 8 nM.

Turning to `COC(=O)C1=C(C)N=C(C)/C(=C(/O)OC)C1c1cccc(N/C(=N/CCNC2CCN(c3ccccc3)CC2)NC#N)c1` (stereo unspecified), the concentration for half-maximal inhibition (IC50) came out at 10 nM.

The molecule `COC(=O)C1=C(C)N=C(C)/C(=C(/O)OC)C1c1cccc(N/C(=N/CCNC2CCN(c3ccccc3OC(F)(F)F)CC2)NC#N)c1` (stereo unspecified) had an IC50 of 28 nM.

In turn, `COC(=O)C1=C(C)N=C(C)/C(=C(/O)OC)C1c1cccc(NC(=O)NCCNC2CCN(c3ccccc3[N+](=O)[O-])CC2)c1` (stereo unspecified) registered an IC50 of 2 nM.

In turn, `COC(=O)C1=C(C)N=C(C)/C(=C(/O)OC)C1c1cccc(N/C(=N/CCNC2CCN(c3ccccc3O)CC2)NC#N)c1` (stereo unspecified) had an IC50 of 5 nM.

With `COC(=O)C1=C(C)N=C(C)/C(=C(/O)OC)C1c1cccc(N/C(=N/CCCN2CCN(c3cccc(OC)c3)CC2)NC#N)c1` (stereo unspecified), the IC50 is 39 nM.

Regarding `COC(=O)C1=C(C)N=C(C)/C(=C(/O)OC)C1c1cccc(N/C(=N/CCNC2CCN(c3ccccc3[N+](=O)[O-])CC2)NC#N)c1` (stereo unspecified), the IC50 came out at 4 nM.

On to `COC(=O)C1=C(C)N=C(C)/C(=C(/O)OC)C1c1cccc(NC(=O)NCCNC2CCN(c3ccccc3C)CC2)c1` (stereo unspecified), for which the half-maximal inhibitory concentration (IC50) amounted to 4 nM.

As for `COC(=O)C1=C(C)N=C(C)/C(=C(/O)OC)C1c1cccc(N/C(=N/CCNC2CCN(c3ccccc3OC)CC2)NC#N)c1` (stereo unspecified), the IC50 was found to be 4 nM.

Molecule `COC(=O)C1=C(C)N=C(C)/C(=C(/O)OC)C1c1cccc(NC(=O)NCCNC2CCN(c3ccccc3C(F)(F)F)CC2)c1` (stereo unspecified) showed a 50% inhibitory concentration (IC50) of 31 nM.

In turn, `COC(=O)C1=C(C)N=C(C)/C(=C(/O)OC)C1c1cccc(N/C(=N/CCNC2CCN(c3cccc(Cl)c3)CC2)NC#N)c1` (stereo unspecified) yielded a 50% inhibitory concentration (IC50) of 8 nM.

In turn, `COC(=O)C1=C(C)N=C(C)/C(=C(/O)OC)C1c1cccc(NC(=O)NCCNC2CCN(c3ccccc3O)CC2)c1` (stereo unspecified) showed an IC50 of 6 nM.

Turning to `COC(=O)C1=C(C)N=C(C)/C(=C(/O)OC)C1c1cccc(NC(=O)NCCNC2CCN(c3ccccc3)CC2)c1` (stereo unspecified), the 50% inhibitory concentration (IC50) came to 2 nM.

With `COC(=O)C1=C(C)N=C(C)/C(=C(/O)OC)C1c1cccc(NC(=O)NCCNC2CCN(c3ccccc3OC(F)(F)F)CC2)c1` (stereo unspecified), the 50% inhibitory concentration (IC50) turned out to be 25 nM.

In turn, `COC(=O)C1=C(C)N=C(C)/C(=C(/O)OC)C1c1cccc(N/C(=N/CCNC2CCN(c3ccccc3C(F)(F)F)CC2)NC#N)c1` (stereo unspecified) had a half-inhibitory concentration (IC50) of 14 nM.

As for `COC(=O)C1=C(C)N=C(C)/C(=C(/O)OC)C1c1cccc(NC(=O)NCCNC2CCN(c3ccccc3OC)CC2)c1` (stereo unspecified), the IC50 amounted to 2 nM.

`COC(=O)C1=C(C)N=C(C)/C(=C(/O)OC)C1c1cccc(N/C(=N/CCNC2CCN(c3ccccc3SC)CC2)NC#N)c1` (stereo unspecified) showed a 50% inhibitory concentration (IC50) of 3 nM.

For the molecule `COC(=O)C1=C(C)N=C(C)/C(=C(/O)OC)C1c1cccc(NC(=O)NCCNC2CCN(c3ccccc3SC)CC2)c1` (stereo unspecified), the IC50 came to 5 nM.

In turn, `COC(=O)C1=C(C)N=C(C)/C(=C(/O)OC)C1c1cccc(N/C(=N/CCNC2CCN(c3ccccc3C)CC2)NC#N)c1` (stereo unspecified) displayed an IC50 of 4 nM.

With `COC(=O)C1=C(C)N=C(C)/C(=C(/O)OC)C1c1cccc(N/C(=N/CCNC2CCN(c3ccccc3C#N)CC2)NC#N)c1` (stereo unspecified), the IC50 was found to be 3 nM.

In turn, `COC(=O)C1=C(C)N=C(C)/C(=C(/O)OC)C1c1cccc(NC(=O)NCCCN2CCN(c3ccccc3OC)CC2)c1` (stereo unspecified) registered a concentration for half-maximal inhibition (IC50) of 12 nM.

The target in the next assay is T1, Neuropeptide Y receptor type 1. As to the kind of experiment: Antagonist activity towards Neuropeptide Y receptor type 1. In kind it is functional.
`COC(=O)C1=C(C)N=C(C)/C(=C(/O)OC)C1c1cccc(N/C(=N/CCNC2CCN(c3ccccc3OC)CC2)NC#N)c1` (stereo unspecified) came in with a Ki of 3.6 nM.

On to `COC(=O)C1=C(C)N=C(C)/C(=C(/O)OC)C1c1cccc(NC(=O)NCCNC2CCN(c3ccccc3OC)CC2)c1` (stereo unspecified), for which the inhibition constant Ki came out at 1.9 nM.

System in the next assay: not listed separately
As to the kind of experiment: Tested for inhibition of the forskolin-stimulated cAMP production. In kind it is functional. (Changes in cAMP serve as a functional read-out for many G protein-coupled receptors.)
Molecule `COC(=O)C1=C(C)N=C(C)/C(=C(/O)OC)C1c1cccc(N/C(=N/CCNC2CCN(c3ccccc3OC)CC2)NC#N)c1` (stereo unspecified) gave a Kb of 9.4 nM.

Turning to `COC(=O)C1=C(C)N=C(C)/C(=C(/O)OC)C1c1cccc(NC(=O)NCCNC2CCN(c3ccccc3OC)CC2)c1` (stereo unspecified), the Kb turned out to be 20 nM.

The values are drawn from ChEMBL document CHEMBL1138714, “Isosteric N-arylpiperazine replacements in a series of dihydropyridine NPY1 receptor antagonists” (Bioorg Med Chem Lett, 2004).
